Experimental data published in the supplement of paper PMC11061612.

Key:
[1] = compound: CN(CC[C@H](CSC1=CC=CC=C1)NC2=C(C=C(C=C2)S(=O)(=O)NC(=O)C3=CC=C(C=C3)N4CCC(CC4)[C@H](C5=CC=CC=C5C6=CC=C(C=C6)Cl)O)S(=O)(=O)C(F)(F)F)CCO [AZD4320]; details: max 1 µM
Outline: (§1)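 Cancer cell lines were plated in 1536-well plates in 7.5 μl of DMEM/F12 or RPMI with 10% FBS and kept 24 hours at 37°C and 5% CO2 before 72 hours of dosing, with final DMSO typically 0.2%. CellTiter-Glo 2.0 luminescence measured viability, scaled between blank-well and DMSO-well means. Dose responses were fitted to a two-parameter logistic curve with a non-linear mixed effects model. This fit gives the single-agent IC50.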

[2] = compound: CC(C)n1c(=O)n(C)c2cnc3cc(F)c(-c4ccc(OCCCN5CCCCC5)nc4)cc3c21 [AZD1390]; details: max 0.3 µM
Outline: as §1

[3] = compound: C[C@@H](c1ccc2nccn2c1)n1nnc2ncc(-c3cnn(C)c3)nc21 [Savolitinib]; details: max 1 µM
Outline: as §1

[4] = compound: Cc1c2c(nn1C)CSCc1cc(n(C)n1)CSc1cc(c3ccccc3c1)OCCCc1c(C(=O)O)n(C)c3c-2c(Cl)ccc13 [AZD5991]; details: max 1 µM
Outline: as §1

[5] = compound: CC1=CN2[C@@H](C1)C=NC3=CC(=C(C=C3C2=O)OC)OCCCCCOC4=C(C=C5C(=C4)N=C[C@@H]6CC(=CN6C5=O)C)OC [SG3199]; details: max 0.001 µM
Outline: as §1

[6] = compound: COc1cccc2c1C(=O)c1c(O)c3c(c(O)c1C2=O)C[C@@](O)(C(=O)CO)C[C@@H]3O[C@H]1C[C@H](N)[C@H](O)[C@H](C)O1 [Doxorubicin]; details: max 1 µM
Outline: as §1

[7] = compound: O=c1[nH]cc(F)c(=O)[nH]1 [5-Fluorouracil]; details: max 20 µM
Outline: as §1

[8] = compound: NC1(c2ccc(-c3nc4ccn5c(=O)[nH]nc5c4cc3-c3ccccc3)cc2)CCC1 [MK-2206]; details: max 10 µM
Outline: as §1

[9] = compound: N#Cc1cnc(Nc2cc(NC[C@H]3CNCCO3)c(C(F)(F)F)cn2)cn1 [SRA737]; details: max 10 µM
Outline: as §1

[10] = compound: Cn1cnc2c(F)c(Nc3ccc(Br)cc3Cl)c(C(=O)NOCCO)cc21 [Selumetinib]; details: max 10 µM
Outline: as §1

[11] = compound: COc1cc([C@@H]2c3cc4c(cc3[C@@H](O[C@@H]3O[C@@H]5CO[C@@H](C)O[C@H]5[C@H](O)[C@H]3O)[C@H]3COC(=O)[C@H]23)OCO4)cc(OC)c1O [Etoposide]; details: max 10 µM
Outline: as §1

[12] = compound: CCc1c2c(nc3ccc(O)cc13)-c1cc3c(c(=O)n1C2)COC(=O)[C@]3(O)CC [SN-38]; details: max 0.3 µM
Outline: as §1

[13] = compound: Cc1nc(-c2cn3c(n2)-c2ccc(-c4cnn(C(C)(C)C(N)=O)c4)cc2OCC3)n(C(C)C)n1 [Taselisib]; details: max 10 µM
Outline: as §1

[14] = compound: C[C@@H](Oc1cc(-c2cnn(C3CCNCC3)c2)cnc1N)c1c(Cl)ccc(F)c1Cl [Crizotinib]; details: max 10 µM
Outline: as §1

[15] = compound: C1CN(CCC1(C(=O)N[C@@H](CCO)C2=CC=C(C=C2)Cl)N)C3=NC=NC4=C3C=CN4 [AZD5363]; details: max 10 µM
Outline: as §1

[16] = compound: COc1cc2ncnc(Nc3ccc(F)c(Cl)c3)c2cc1OCCCN1CCOCC1 [Gefitinib]; details: max 10 µM
Outline: as §1

[17] = compound: CCN(CCO)CCCOc1ccc2c(Nc3cc(CC(=O)Nc4cccc(F)c4)[nH]n3)ncnc2c1 [AZD2811]; details: max 1 µM
Outline: as §1

[18] = compound: CC(=O)O[C@H]1C(=O)[C@@]2(C)[C@H]([C@H](OC(=O)c3ccccc3)[C@]3(O)C[C@H](OC(=O)[C@H](O)[C@@H](NC(=O)c4ccccc4)c4ccccc4)C(C)=C1C3(C)C)[C@]1(OC(C)=O)CO[C@@H]1C[C@@H]2O [Paclitaxel]; details: max 3 µM
Outline: as §1

[19] = compound: C[C@@H]1COCCN1C2=NC(=NC(=C2)C3(CC3)[S@](=N)(=O)C)C4=C5C=CNC5=NC=C4 [AZD6738]; details: max 10 µM
Outline: as §1

[20] = compound: COc1cccc(OCCCN)c1-c1cc(Nc2cnc(C#N)cn2)n[nH]1 [Prexasertib]; details: max 1 µM
Outline: as §1

[21] = compound: C=CCn1c(=O)c2cnc(Nc3ccc(N4CCN(C)CC4)cc3)nc2n1-c1cccc(C(C)(C)O)n1 [AZD1775]; details: max 3 µM
Outline: as §1

[22] = compound: O=C(c1cc(Cc2n[nH]c(=O)c3ccccc23)ccc1F)N1CCN(C(=O)C2CC2)CC1 [Olaparib]; details: max 10 µM
Outline: as §1

[23] = compound: COc1cc(Nc2ncc3c(n2)-c2ccc(Cl)cc2C(c2c(F)cccc2OC)=NC3)ccc1C(=O)O [Alisertib]; details: max 10 µM
Outline: as §1

[24] = compound: Nc1ccn([C@@H]2O[C@H](CO)[C@@H](O)C2(F)F)c(=O)n1 [Gemcitabine]; details: max 0.3 µM
Outline: as §1

[25] = compound: O=C(Nc1ccc2[nH]nc(-c3ccncc3)c2c1)[C@@H]1CCN(CC(=O)N2CCN(c3ccc(-c4ncccn4)cc3)CC2)C1; details: max 5 µM
Outline: as §1

[26] = compound: CN(C)CCCOc1ccc(-c2ccc3ncc4c(c3c2)n(C2CCOCC2)c(=O)n4C)cn1 [AZD0156]; details: max 3 µM
Outline: as §1

[27] = compound: C1CC(C1)(C(=O)[O-])C(=O)[O-].N.N.[Pt+2] [Carboplatin]; details: max 10 µM
Outline: as §1

[28] = compound: CC1=C(C(=CC=C1)Cl)NC(=O)C2=CN=C(S2)NC3=CC(=NC(=N3)C)N4CCN(CC4)CCO [Dasatinib]; details: max 2 µM
Outline: as §1

[29] = compound: C[C@@H](Nc1cc(F)cc(F)c1)c1cc(C(=O)N(C)C)cc2c(=O)cc(N3CCOCC3)oc12 [AZD8186]; details: max 10 µM
Outline: as §1

[30] = compound: Cc1cc2ncnn2cc1Nc1ncc2c(n1)n(C1CCOCC1)c(=O)n2C [AZD7648]; details: max 10 µM
Outline: as §1

[31] = compound: CC(=O)Nc1cccc(-n2c(=O)n(C3CC3)c(=O)c3c(Nc4ccc(I)cc4F)n(C)c(=O)c(C)c32)c1 [Trametinib]; details: max 1 µM
Outline: as §1

[32] = compound: COc1nnc2ccc(N3CCC(c4ccc(OCCN5CCN(C)C(=O)[C@H]5C)cc4)CC3)nn12 [AZD5153]; details: max 1 µM
Outline: as §1

[33] = compound: CC1(C)CCC(CN2CCN(c3ccc(C(=O)NS(=O)(=O)c4ccc(NCC5CCOCC5)c([N+](=O)[O-])c4)c(Oc4cnc5[nH]ccc5c4)c3)CC2)=C(c2ccc(Cl)cc2)C1 [Venetoclax]; details: max 1 µM
Outline: as §1

[34] = compound: CS(=O)(=O)CCNCc1ccc(-c2ccc3ncnc(Nc4ccc(OCc5cccc(F)c5)c(Cl)c4)c3c2)o1 [Lapatinib]; details: max 10 µM
Outline: as §1

[35] = compound: CC(=O)c1c(C)c2cnc(Nc3ccc(N4CCNCC4)cn3)nc2n(C2CCCC2)c1=O [Palbociclib]; details: max 10 µM
Outline: as §1

## LOUCY (T-Lymphoblastic Leukemia)
[1]
  IC50, cell viability 72 h: 3.75 nM
[2]
  IC50, cell viability 72 h: > 300 nM
[3]
  IC50, cell viability 72 h: > 1000 nM
[4]
  IC50, cell viability 72 h: > 1000 nM
[5]
  IC50, cell viability 72 h: > 1 nM
[6]
  IC50, cell viability 72 h: > 1000 nM
[7]
  IC50, cell viability 72 h: > 20000 nM
[8]
  IC50, cell viability 72 h: 1230 nM
[9]
  IC50, cell viability 72 h: 2720 nM
[10]
  IC50, cell viability 72 h: > 10000 nM
[11]
  IC50, cell viability 72 h: 5000 nM
[12]
  IC50, cell viability 72 h: 172 nM
[13]
  IC50, cell viability 72 h: 3530 nM
[14]
  IC50, cell viability 72 h: 4000 nM
[15]
  IC50, cell viability 72 h: 2450 nM
[16]
  IC50, cell viability 72 h: > 10000 nM
[17]
  IC50, cell viability 72 h: 8.15 nM
[18]
  IC50, cell viability 72 h: 13.5 nM
[19]
  IC50, cell viability 72 h: 1310 nM
[20]
  IC50, cell viability 72 h: 6.97 nM
[21]
  IC50, cell viability 72 h: 257 nM
[22]
  IC50, cell viability 72 h: > 10000 nM
[23]
  IC50, cell viability 72 h: 597 nM
[24]
  IC50, cell viability 72 h: > 300 nM
[25]
  IC50, cell viability 72 h: > 5000 nM
[26]
  IC50, cell viability 72 h: > 3000 nM
[27]
  IC50, cell viability 72 h: > 10000 nM
[28]
  IC50, cell viability 72 h: > 2000 nM
[29]
  IC50, cell viability 72 h: > 10000 nM
[30]
  IC50, cell viability 72 h: 7430 nM
[31]
  IC50, cell viability 72 h: > 1000 nM
[32]
  IC50, cell viability 72 h: 385 nM
[33]
  IC50, cell viability 72 h: 31.7 nM
[34]
  IC50, cell viability 72 h: > 10000 nM
[35]
  IC50, cell viability 72 h: > 10000 nM

## CHL-1 (Melanoma)
[1]
  IC50, cell viability 72 h: > 1000 nM
[2]
  IC50, cell viability 72 h: > 300 nM
[3]
  IC50, cell viability 72 h: > 1000 nM
[4]
  IC50, cell viability 72 h: > 1000 nM
[5]
  IC50, cell viability 72 h: > 1 nM
[6]
  IC50, cell viability 72 h: > 1000 nM
[7]
  IC50, cell viability 72 h: > 20000 nM
[8]
  IC50, cell viability 72 h: > 10000 nM
[9]
  IC50, cell viability 72 h: > 10000 nM
[10]
  IC50, cell viability 72 h: > 10000 nM
[11]
  IC50, cell viability 72 h: 8950 nM
[12]
  IC50, cell viability 72 h: 143 nM
[13]
  IC50, cell viability 72 h: 8260 nM
[14]
  IC50, cell viability 72 h: > 10000 nM
[15]
  IC50, cell viability 72 h: > 10000 nM
[16]
  IC50, cell viability 72 h: > 10000 nM
[17]
  IC50, cell viability 72 h: > 1000 nM
[18]
  IC50, cell viability 72 h: 19.2 nM
[19]
  IC50, cell viability 72 h: 2730 nM
[20]
  IC50, cell viability 72 h: 76.8 nM
[21]
  IC50, cell viability 72 h: 1680 nM
[22]
  IC50, cell viability 72 h: > 10000 nM
[23]
  IC50, cell viability 72 h: > 10000 nM
[24]
  IC50, cell viability 72 h: 218 nM
[25]
  IC50, cell viability 72 h: > 5000 nM
[26]
  IC50, cell viability 72 h: > 3000 nM
[27]
  IC50, cell viability 72 h: > 10000 nM
[28]
  IC50, cell viability 72 h: > 2000 nM
[29]
  IC50, cell viability 72 h: > 10000 nM
[30]
  IC50, cell viability 72 h: > 10000 nM
[31]
  IC50, cell viability 72 h: > 1000 nM
[32]
  IC50, cell viability 72 h: 594 nM
[33]
  IC50, cell viability 72 h: > 1000 nM
[34]
  IC50, cell viability 72 h: 9960 nM
[35]
  IC50, cell viability 72 h: > 10000 nM
